Source: paper PMC9404989, “Design and Evaluation of Short Bovine Lactoferrin-Derived Antimicrobial Peptides against Multidrug-Resistant Enterococcus faecium” (Antibiotics, 2022)

Tested on: E. faecium
Experiment: Antibacterial activity of native LfcinB6
Format: cell-based, Enterococcus faecium
Conditions: strain and source not given

For RRWQWR [LfcinB6], the “activity against E. faecium” value was “inactive”.
